Assays:
Test in all cases: relative viability (nuclei count vs DMSO), 5 days (fraction); higher = more cells survive
Phenformin = compound: N=C(N)NC(=N)NCCc1ccccc1 [Phenformin] (anchor plate); settings: 250 µM
Outline: (§1)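 Lung cancer cell lines received five library-drug doses (not always all listed) spaced by √10, pinned on vehicle-anchored 1536-well plates after an overnight stay at 37 °C. Five days later, with no medium change, nuclei were Hoechst-stained, imaged at 4× and counted with MetaXpress. Viability is treated-well nuclei relative to vehicle-well nuclei, as a median across plates. Passing plates had control CV below 25% and at least one doubling.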

AT9283 = compound: O=C(Nc1c[nH]nc1-c1nc2ccc(CN3CCOCC3)cc2[nH]1)NC1CC1 [AT9283]
Outline: as §1

Erlotinib = compound: C#Cc1cccc(Nc2ncnc3cc(OCCOC)c(OCCOC)cc23)c1 [Erlotinib]
Outline: as §1

Erlotinib + Palbociclib = compound: C#Cc1cccc(Nc2ncnc3cc(OCCOC)c(OCCOC)cc23)c1 [Erlotinib] + CC(=O)c1c(C)c2cnc(Nc3ccc(N4CCNCC4)cn3)nc2n(C2CCCC2)c1=O [Palbociclib] (partner 0.5 µM)
Outline: (§2)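 Each reported value is a median over duplicate plates. It expresses relative viability: treated-well nuclei count divided by vehicle-well nuclei count. Lung cancer cell lines in 1536-well plates were dosed by pin tool a day after seeding, alone with one drug or with a fixed anchor-drug dose plus five library-drug doses (not always all listed) in √10 steps, and nuclei were counted after 5 days.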

AT9283 + Olaparib = compound: O=C(Nc1c[nH]nc1-c1nc2ccc(CN3CCOCC3)cc2[nH]1)NC1CC1 [AT9283] + O=C(c1cc(Cc2n[nH]c(=O)c3ccccc23)ccc1F)N1CCN(C(=O)C2CC2)CC1 [Olaparib] (partner 8 µM)
Outline: as §2

201T was tested, and the relative viability (Phenformin) was 0.45, the relative viability (AT9283; 0.003 µM) was 0.909 and the relative viability (AT9283; 0.03 µM) was 0.97. The relative viability (AT9283; 0.09487 µM) was 0.537, the relative viability (AT9283; 0.3 µM) was 0.361 and the relative viability (Erlotinib; 0.02 µM) was 0.963. It also gave a relative viability (Erlotinib; 0.2 µM) of 0.957, a relative viability (Erlotinib; 0.6325 µM) of 0.946 and a relative viability (Erlotinib; 2 µM) of 0.865. The relative viability (Erlotinib + Palbociclib; first compound 0.02 µM) was 0.35, the relative viability (Erlotinib + Palbociclib; first compound 0.2 µM) was 0.323 and the relative viability (Erlotinib + Palbociclib; first compound 0.6325 µM) was 0.319. For the same cell line, the relative viability (Erlotinib + Palbociclib; first compound 2 µM) was 0.287, the relative viability (AT9283 + Olaparib; first compound 0.003 µM) was 0.867 and the relative viability (AT9283 + Olaparib; first compound 0.03 µM) was 0.815. The relative viability (AT9283 + Olaparib; first compound 0.09487 µM) was 0.356 and the relative viability (AT9283 + Olaparib; first compound 0.3 µM) was 0.335.

For A549, the relative viability (Phenformin) was 0.165, the relative viability (AT9283; 0.003 µM) was 0.917 and the relative viability (AT9283; 0.03 µM) was 0.458. It also gave a relative viability (AT9283; 0.09487 µM) of 0.125, a relative viability (AT9283; 0.3 µM) of 0.0647 and a relative viability (Erlotinib; 0.02 µM) of 0.918. For the same cell line, the relative viability (Erlotinib; 0.2 µM) was 0.936, the relative viability (Erlotinib; 0.6325 µM) was 0.963 and the relative viability (Erlotinib; 2 µM) was 0.879. The relative viability (AT9283 + Olaparib; first compound 0.003 µM) was 0.358, the relative viability (AT9283 + Olaparib; first compound 0.03 µM) was 0.0601 and the relative viability (AT9283 + Olaparib; first compound 0.09487 µM) was 0.0514. It also gave a relative viability (AT9283 + Olaparib; first compound 0.3 µM) of 0.069.

Work on A-427 yielded a relative viability (Phenformin) of 0.323, a relative viability (AT9283; 0.003 µM) of 0.929 and a relative viability (AT9283; 0.03 µM) of 0.453. For the same cell line, the relative viability (AT9283; 0.09487 µM) was 0.264, the relative viability (AT9283; 0.3 µM) was 0.242 and the relative viability (Erlotinib; 0.02 µM) was 1.03. For the same cell line, the relative viability (Erlotinib; 0.2 µM) was 0.957, the relative viability (Erlotinib; 0.6325 µM) was 1.08 and the relative viability (Erlotinib; 2 µM) was 1.01. The relative viability (Erlotinib + Palbociclib; first compound 0.02 µM) was 0.485, the relative viability (Erlotinib + Palbociclib; first compound 0.2 µM) was 0.492 and the relative viability (Erlotinib + Palbociclib; first compound 0.6325 µM) was 0.529. The relative viability (Erlotinib + Palbociclib; first compound 2 µM) was 0.53, the relative viability (AT9283 + Olaparib; first compound 0.003 µM) was 0.652 and the relative viability (AT9283 + Olaparib; first compound 0.03 µM) was 0.428. The relative viability (AT9283 + Olaparib; first compound 0.09487 µM) was 0.292 and the relative viability (AT9283 + Olaparib; first compound 0.3 µM) was 0.27.

Work on ABC-1 yielded a relative viability (Phenformin) of 0.25, a relative viability (AT9283; 0.003 µM) of 0.831 and a relative viability (AT9283; 0.03 µM) of 0.301. For the same cell line, the relative viability (AT9283; 0.09487 µM) was 0.3, the relative viability (AT9283; 0.3 µM) was 0.235 and the relative viability (Erlotinib; 0.02 µM) was 0.827. It also gave a relative viability (Erlotinib; 0.2 µM) of 0.881, a relative viability (Erlotinib; 0.6325 µM) of 1.01 and a relative viability (Erlotinib; 2 µM) of 0.81. For the same cell line, the relative viability (Erlotinib + Palbociclib; first compound 0.2 µM) was 0.585, the relative viability (Erlotinib + Palbociclib; first compound 0.6325 µM) was 0.489 and the relative viability (AT9283 + Olaparib; first compound 0.003 µM) was 0.853. For the same cell line, the relative viability (AT9283 + Olaparib; first compound 0.03 µM) was 0.324, the relative viability (AT9283 + Olaparib; first compound 0.09487 µM) was 0.551 and the relative viability (AT9283 + Olaparib; first compound 0.3 µM) was 0.417.

Cell Line BEN has a relative viability (Phenformin) of 0.263, a relative viability (AT9283; 0.003 µM) of 0.874 and a relative viability (AT9283; 0.03 µM) of 0.965. The relative viability (AT9283; 0.09487 µM) was 0.23, the relative viability (AT9283; 0.3 µM) was 0.278 and the relative viability (Erlotinib; 0.02 µM) was 0.927. The relative viability (Erlotinib; 0.2 µM) was 0.954, the relative viability (Erlotinib; 0.6325 µM) was 1.19 and the relative viability (Erlotinib; 2 µM) was 0.961. It also gave a relative viability (Erlotinib + Palbociclib; first compound 0.02 µM) of 0.497, a relative viability (Erlotinib + Palbociclib; first compound 0.2 µM) of 0.442 and a relative viability (Erlotinib + Palbociclib; first compound 0.6325 µM) of 0.507. The relative viability (Erlotinib + Palbociclib; first compound 2 µM) was 0.483, the relative viability (AT9283 + Olaparib; first compound 0.003 µM) was 0.969 and the relative viability (AT9283 + Olaparib; first compound 0.03 µM) was 0.747. For the same cell line, the relative viability (AT9283 + Olaparib; first compound 0.09487 µM) was 0.481 and the relative viability (AT9283 + Olaparib; first compound 0.3 µM) was 0.298.

For CAL-12T, the relative viability (Phenformin) was 0.597, the relative viability (AT9283; 0.003 µM) was 1.06 and the relative viability (AT9283; 0.03 µM) was 0.828. It also gave a relative viability (AT9283; 0.09487 µM) of 0.451, a relative viability (AT9283; 0.3 µM) of 0.227 and a relative viability (Erlotinib; 0.02 µM) of 1. The relative viability (Erlotinib; 0.2 µM) was 0.785, the relative viability (Erlotinib; 0.6325 µM) was 0.618 and the relative viability (Erlotinib; 2 µM) was 0.521. It also gave a relative viability (Erlotinib + Palbociclib; first compound 0.02 µM) of 0.433, a relative viability (Erlotinib + Palbociclib; first compound 0.2 µM) of 0.125 and a relative viability (Erlotinib + Palbociclib; first compound 0.6325 µM) of 0.154. It also gave a relative viability (Erlotinib + Palbociclib; first compound 2 µM) of 0.146, a relative viability (AT9283 + Olaparib; first compound 0.003 µM) of 0.734 and a relative viability (AT9283 + Olaparib; first compound 0.03 µM) of 0.536. It also gave a relative viability (AT9283 + Olaparib; first compound 0.09487 µM) of 0.307 and a relative viability (AT9283 + Olaparib; first compound 0.3 µM) of 0.222.

For COR-L23, the relative viability (Phenformin) was 0.43, the relative viability (AT9283; 0.003 µM) was 1.05 and the relative viability (AT9283; 0.03 µM) was 0.592. For the same cell line, the relative viability (AT9283; 0.09487 µM) was 0.206, the relative viability (AT9283; 0.3 µM) was 0.183 and the relative viability (Erlotinib; 0.02 µM) was 1.09. It also gave a relative viability (Erlotinib; 0.2 µM) of 1.04, a relative viability (Erlotinib; 0.6325 µM) of 1.22 and a relative viability (Erlotinib; 2 µM) of 0.894. The relative viability (Erlotinib + Palbociclib; first compound 0.02 µM) was 0.292, the relative viability (Erlotinib + Palbociclib; first compound 0.2 µM) was 0.287 and the relative viability (Erlotinib + Palbociclib; first compound 0.6325 µM) was 0.383. For the same cell line, the relative viability (Erlotinib + Palbociclib; first compound 2 µM) was 0.29, the relative viability (AT9283 + Olaparib; first compound 0.003 µM) was 0.331 and the relative viability (AT9283 + Olaparib; first compound 0.03 µM) was 0.156. The relative viability (AT9283 + Olaparib; first compound 0.09487 µM) was 0.115 and the relative viability (AT9283 + Olaparib; first compound 0.3 µM) was 0.137.

In the case of COR-L 105, the relative viability (Phenformin) is reported as 0.551, the relative viability (AT9283; 0.003 µM) is reported as 0.983 and the relative viability (AT9283; 0.03 µM) is reported as 0.4. The relative viability (AT9283; 0.09487 µM) was 0.334, the relative viability (AT9283; 0.3 µM) was 0.334 and the relative viability (Erlotinib; 0.02 µM) was 0.931. The relative viability (Erlotinib; 0.2 µM) was 0.515, the relative viability (Erlotinib; 0.6325 µM) was 0.4 and the relative viability (Erlotinib; 2 µM) was 0.334. It also gave a relative viability (Erlotinib + Palbociclib; first compound 0.02 µM) of 0.402, a relative viability (Erlotinib + Palbociclib; first compound 0.2 µM) of 0.322 and a relative viability (Erlotinib + Palbociclib; first compound 0.6325 µM) of 0.359. The relative viability (Erlotinib + Palbociclib; first compound 2 µM) was 0.328, the relative viability (AT9283 + Olaparib; first compound 0.003 µM) was 0.625 and the relative viability (AT9283 + Olaparib; first compound 0.03 µM) was 0.408. It also gave a relative viability (AT9283 + Olaparib; first compound 0.09487 µM) of 0.37 and a relative viability (AT9283 + Olaparib; first compound 0.3 µM) of 0.325.

In the case of Calu-6, the relative viability (AT9283; 0.003 µM) is reported as 1.01, the relative viability (AT9283; 0.03 µM) is reported as 0.299 and the relative viability (AT9283; 0.09487 µM) is reported as 0.246. It also gave a relative viability (AT9283; 0.3 µM) of 0.273, a relative viability (Erlotinib; 0.02 µM) of 1.01 and a relative viability (Erlotinib; 0.2 µM) of 0.986. It also gave a relative viability (Erlotinib; 0.6325 µM) of 1.01, a relative viability (Erlotinib; 2 µM) of 0.907 and a relative viability (AT9283 + Olaparib; first compound 0.003 µM) of 0.575. For the same cell line, the relative viability (AT9283 + Olaparib; first compound 0.03 µM) was 0.228, the relative viability (AT9283 + Olaparib; first compound 0.09487 µM) was 0.178 and the relative viability (AT9283 + Olaparib; first compound 0.3 µM) was 0.197.

Cell Line ChaGo-K-1 has a relative viability (Phenformin) of 0.514, a relative viability (AT9283; 0.003 µM) of 0.849 and a relative viability (AT9283; 0.03 µM) of 0.91. For the same cell line, the relative viability (AT9283; 0.09487 µM) was 0.451, the relative viability (AT9283; 0.3 µM) was 0.396 and the relative viability (Erlotinib; 0.02 µM) was 0.977. The relative viability (Erlotinib; 0.2 µM) was 1.05, the relative viability (Erlotinib; 0.6325 µM) was 1.04 and the relative viability (Erlotinib; 2 µM) was 0.903. It also gave a relative viability (Erlotinib + Palbociclib; first compound 0.02 µM) of 0.89, a relative viability (Erlotinib + Palbociclib; first compound 0.2 µM) of 0.952 and a relative viability (Erlotinib + Palbociclib; first compound 0.6325 µM) of 0.951. For the same cell line, the relative viability (Erlotinib + Palbociclib; first compound 2 µM) was 0.854, the relative viability (AT9283 + Olaparib; first compound 0.003 µM) was 0.444 and the relative viability (AT9283 + Olaparib; first compound 0.03 µM) was 0.352. For the same cell line, the relative viability (AT9283 + Olaparib; first compound 0.09487 µM) was 0.252 and the relative viability (AT9283 + Olaparib; first compound 0.3 µM) was 0.203.

— the supplement of paper PMC10307832
